The test relates to HCV 1b_Huh-Luc/Neo-ET cell line persistently expressing a bicistronic genotype 1b replicon in Huh 7 cells. Nature of the test: HCV replicon assay (luciferase readout). It is filed as cell-based. As to conditions: Hepatitis C virus, Huh-7, 72 h, read-out: Inhibition of HCV genotype 1b. The gist of the method:
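EC50, determined repeatedly, comes from a four-parameter logistic fit of luciferase signal as percent of untreated control. Readout follows 72 h compound exposure, in triplicate, of the HCV 1b_Huh-Luc/Neo-ET replicon line.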
On the technique in general: In antiviral work, replicon cells carry a viral genome segment that copies itself.

The results in this text go back to patent US8865756B2, “Inhibitors of HCV NS5A” (Presidio Pharmaceuticals, Inc., priority 2008, dated 2014).

On to `COC(=O)N[C@@H](C(=O)N1CCC[C@H]1c1ncc(-c2ccc(C#Cc3ccc(-c4cnc([C@@H]5CCCN5C(=O)[C@H](NC(=O)[C@@H]5CCCN5C)c5ccccc5)[nH]4)cc3)cc2)[nH]1)c1ccccc1` [Compound 203], for which the EC50 was less than 1 nM.
`COC(=O)N[C@H](Cc1ccccc1)C(=O)N1CCC[C@H]1c1ncc(-c2ccc(C#Cc3ccc(-c4cnc([C@@H]5CCCN5C(=O)[C@H](NC(=O)OC)c5ccccc5)[nH]4)cc3)cc2)[nH]1` [Compound 180]: the EC50 was less than 1 nM.
As to `COC(=O)N[C@@H](CC(N)=O)C(=O)N1CCC[C@H]1c1ncc(-c2ccc(C#Cc3ccc4nc([C@@H]5CCCN5C(=O)[C@H](CC(N)=O)NC(=O)OC)[nH]c4c3)cc2)[nH]1` [Compound 1046], the EC50 was 1 to 9.9 nM.
As to `CS(=O)(=O)N[C@@H](C(=O)N1CCC[C@H]1c1ncc(-c2ccc(C#Cc3ccc(-c4cnc([C@@H]5CCCN5C(=O)[C@@H](c5ccccc5)N5CCOCC5)[nH]4)cc3)cc2)[nH]1)c1ccccc1` [Compound 232], the EC50 was less than 1 nM.
For the compound `COC(=O)N[C@@H](C(=O)N1CCC[C@H]1c1ncc(-c2ccc(C#Cc3ccc(-c4cnc([C@@H]5CCCN5C(=O)[C@H](NC(=O)OC)[C@H](C)OC)[nH]4)cc3)cc2)[nH]1)[C@H](C)OC` [Compound 977], the EC50 was in the range of 10 to 999 nM.
For `CCN(CC)[C@@H](C(=O)N1CCC[C@H]1c1ncc(-c2ccc(-c3ccc(C#Cc4cnc([C@@H]5CCCN5C(=O)[C@H](NC(=O)OC)c5ccccc5)[nH]4)cc3)cc2)[nH]1)c1ccccc1` [Compound 751], the EC50 was less than 1 nM.
The result for `COC(=O)N[C@H](C(=O)N1CCC[C@H]1c1ncc(-c2ccc(C#Cc3ccc4nc([C@@H]5CCCN5C(=O)[C@@H](NC(=O)OC)C(C)C)[nH]c4c3)nc2)[nH]1)C(C)C` [Compound 1033] reads less than 1 nM.
For the compound `CC(C)[C@H](NC(=O)N1CC[C@@H](O)C1)C(=O)N1CCC[C@H]1c1ncc(-c2ccc(C#Cc3ccc(-c4cnc([C@@H]5CCCN5C(=O)[C@@H](NC(=O)N5CC[C@@H](O)C5)C(C)C)[nH]4)cc3)cc2)[nH]1` [Compound 968], the EC50 lay within 10 to 999 nM.
The result for `COC(=O)N[C@@H](C(=O)N1CCC[C@H]1c1ncc(-c2ccc(C#Cc3ccc(C(=O)NC[C@@H]4CCCN4C(=O)[C@H](NC(=O)N4CCOCC4)c4ccccc4)cc3)cc2)[nH]1)c1ccccc1` [Compound 235] reads less than 1 nM; that for `O=C(N[C@@H](C(=O)N1CCC[C@H]1c1ncc(-c2ccc(C#Cc3ccc(-c4cnc([C@@H]5CCCN5C(=O)[C@H](NC(=O)C5CC5)c5ccccc5)[nH]4)cc3)cc2)[nH]1)c1ccccc1)C1CC1` [Compound 153], less than 1 nM.
`CC(=O)N[C@@H](C(=O)N1CCC[C@H]1c1ncc(C#Cc2ccc(C#Cc3cnc([C@@H]4CCCN4C(=O)[C@H](NC(C)=O)c4ccccc4)[nH]3)cc2)[nH]1)c1ccccc1` [Compound 306]: the EC50 was less than 1 nM.
Then `COC(=O)N[C@@H](C)C(=O)N1CCC[C@H]1c1ncc(-c2ccc(C#Cc3ccc(-c4cnc([C@@H]5CCCN5C(=O)[C@H](C)NC(=O)OC)[nH]4)cc3)cc2)[nH]1` [Compound 962], with less than 1 nM; and `COC(=O)N[C@H](C(=O)N1CCC[C@H]1c1nc2ccc(C#Cc3ccc(-c4cnc([C@@H]5CCCN5C(=O)[C@@H](C(C)C)N(C)C)[nH]4)cc3)cc2[nH]1)C(C)C` [Compound 865], with less than 1 nM.
As to `COC(=O)N[C@H](C(=O)N1CCC[C@H]1c1nc(-c2ccc3cc(C#Cc4cnc([C@@H]5CCCN5C(=O)[C@@H](NC(=O)OC)C5CCOCC5)[nH]4)ccc3c2)c[nH]1)C(C)C` [Compound 1079], the EC50 was less than 1 nM.
Then `COC(=O)N[C@@H](C(=O)N1CCC[C@H]1c1ncc(C#Cc2ccc(C#Cc3cnc([C@@H]4CCCN4C(=O)[C@@H](c4ccccc4)N4CCCCC4)[nH]3)cc2)[nH]1)c1ccccc1` [Compound 312], with less than 1 nM; and `CC(C)[C@@H](NC(=O)OC(C)(C)C)C(=O)N1CCC[C@H]1C(=O)NCCc1ccc(C#Cc2cnc([C@@H]3CCCN3C(=O)[C@H](NC(=O)OC(C)(C)C)C(C)C)[nH]2)cc1` [Compound 126], with 10 to 999 nM; and `COC(=O)N[C@H](C(=O)N1CCC[C@H]1c1nc2ccc(C#Cc3ccc(-c4cnc([C@@H]5CCCN5C(=O)[C@H](C(C)C)N(C)C)[nH]4)cc3)cc2[nH]1)C(C)C` [Compound 866], with less than 1 nM.
Turning to `COC(=O)N[C@H](C(=O)N1CCC[C@H]1c1ncc(-c2ccc(C#Cc3ccc4c(ccc5nc([C@@H]6CCCN6C(=O)[C@@H](NC(=O)OC)C(C)C)[nH]c54)c3)cc2)[nH]1)C(C)C` [Compound 1095], the EC50 is less than 1 nM.
With `COC(=O)N[C@@H](C(=O)N1CCC[C@H]1c1ncc(-c2ccc(C#Cc3ccc(-c4cnc([C@@H]5CCCN5C(=O)N5CCOCC5)[nH]4)cc3)cc2)[nH]1)c1ccccc1` [Compound 198], the EC50 is less than 1 nM.
Turning to `CC(C)(C)OC(=O)NC(C)(C)C(=O)N1CCC[C@H]1c1ncc(C#Cc2ccc(-c3cnc([C@@H]4CCCN4C(=O)C(C)(C)NC(=O)OC(C)(C)C)[nH]3)cc2)[nH]1` [Compound 106], the EC50 is more than 1000 nM.
Then `COC(=O)N[C@@H](C(=O)N1CCC[C@H]1c1ncc(-c2ccc(C#Cc3ccc(-c4cnc([C@@H]5CCCN5C(=O)[C@H](NC(=O)[C@H]5CCCN5C)c5ccccc5)[nH]4)cc3)cc2)[nH]1)c1ccccc1` [Compound 204], with less than 1 nM; and `COC(=O)N[C@@H](C(=O)N1CCC[C@H]1c1ncc(C#Cc2ccc(-c3ccc(-c4cnc([C@@H]5CCCN5C(=O)[C@H](NC(=O)OC(C)(C)C)c5ccccc5)[nH]4)cc3)cc2)[nH]1)c1ccccc1` [Compound 753], with less than 1 nM; and `COC(=O)N[C@H](C(=O)N1CCC[C@H]1c1nc2ccc3cc(C#Cc4ccc(-c5cnc([C@@H]6CCCN6C(=O)[C@H](NC(=O)OC)c6ccccc6)[nH]5)cc4F)ccc3c2[nH]1)C(C)C` [Compound 1100], with less than 1 nM.
Consider `CS(=O)(=O)N[C@@H](C(=O)N1CCC[C@H]1c1ncc(-c2ccc(C#Cc3ccc(-c4cnc([C@@H]5CCCN5C(=O)[C@@H](c5ccccc5)N5CCCC5)[nH]4)cc3)cc2)[nH]1)c1ccccc1` [Compound 230], for which the EC50 was less than 1 nM.
`COC(=O)N[C@H](C(=O)N1CCC[C@H]1c1ncc(-c2ccc(C#Cc3ccc(-c4cnc([C@@H]5CCCN5C(=O)[C@@H](NC(=O)OC)[C@@H](C)O)[nH]4)cc3)cc2)[nH]1)[C@@H](C)O` [Compound 283]: the EC50 was less than 1 nM.
For the compound `CC(C)[C@@H](NC(=O)N1CCCC1)C(=O)N1CCC[C@H]1c1ncc(-c2ccc(C#Cc3ccc(-c4cnc([C@@H]5CCCN5C(=O)[C@H](NC(=O)N5CCCC5)C(C)C)[nH]4)cc3)cc2)[nH]1` [Compound 293], the EC50 was more than 1000 nM.
Consider `CN(C)[C@@H](C(=O)N1CCC[C@H]1c1ncc(-c2ccc(C#Cc3ccc(-c4cnc([C@@H]5CCCN5C(=O)[C@H](NC(=O)C5CC5)c5ccccc5)[nH]4)cc3)cc2)[nH]1)c1ccccc1` [Compound 215], for which the EC50 is less than 1 nM.
The result for `COC(=O)N[C@@H](C(=O)N1CCC[C@H]1c1ncc(-c2ccc(C#Cc3ccc(-c4cnc([C@@H]5CCCN5C(=O)[C@H](NC(=O)N5CC[C@@H](OC)C5)c5ccccc5)[nH]4)cc3)cc2)[nH]1)c1ccccc1` [Compound 271] reads less than 1 nM; that for `COC(=O)N[C@H](C(=O)N1CCC[C@H]1c1nc2ccc3cc(C#Cc4ccc(-c5cnc([C@@H]6CCCN6C(=O)[C@@H](NC(=O)OC)C6CCOCC6)[nH]5)cc4)ccc3c2[nH]1)C(C)C` [Compound 1092], less than 1 nM.
On to `COC(=O)N[C@@H](C(=O)N1CCC[C@H]1c1ncc(C#Cc2ccc(-c3ccc(-c4cnc([C@@H]5CCCN5C(=O)[C@H](NC(=O)C5CC5)c5ccccc5)[nH]4)cc3)cc2)[nH]1)c1ccccc1` [Compound 754], for which the EC50 is less than 1 nM.
As to `COC(=O)N[C@H](C(=O)N1CCC[C@H]1c1ncc(-c2ccc(C#Cc3ccc(-c4cnc([C@@H]5CCCN5C(=O)[C@@H](NC(=O)OC)[C@@H](C)OC)[nH]4)cc3)cc2)[nH]1)[C@@H](C)OC` [Compound 284], the EC50 is less than 1 nM.
Turning to `CCOC(=O)N[C@@H](C(=O)N1CCC[C@H]1c1ncc(-c2ccc(C#Cc3ccc(-c4cnc([C@@H]5CCCN5C(=O)[C@H](NC(=O)OCC)c5ccccc5)[nH]4)cc3)cc2)[nH]1)c1ccccc1` [Compound 244], the EC50 was less than 1 nM.
`COC(=O)N[C@@H](C(=O)N1CCC[C@H]1c1ncc(-c2ccc(C#Cc3ccc(-c4cnc([C@@H]5CCCN5C(=O)[C@@H](c5ccccc5)N5CCOCC5)[nH]4)cc3)cc2)[nH]1)c1ccccc1` [Compound 185]: the EC50 was less than 1 nM.
With `COC(=O)NC(C(=O)N1CCC[C@H]1c1ncc(-c2ccc(C#Cc3ccc(-c4cnc([C@@H]5CCCN5C(=O)[C@@H](NC(=O)OC)C(C)C)[nH]4)c(F)c3)cc2)[nH]1)C(C)C` (stereo partly drawn) [Compound 1011], the EC50 was less than 1 nM.
Then `COC(=O)N[C@H](C(=O)N[C@@H](C)c1ncc(-c2ccc(C#Cc3ccc(-c4cnc([C@@H]5CCCN5C(=O)[C@H](C(C)C)N(C)C)[nH]4)cc3)cc2)[nH]1)C(C)C` [Compound 963], with 1 to 9.9 nM; and `COC(=O)N[C@@H](C(=O)N1CCC[C@H]1c1ncc(-c2ccc(C#Cc3ccc(-c4cnc([C@@H]5CCCN5C(=O)C5(c6ccccc6)CC5)[nH]4)cc3)cc2)[nH]1)c1ccccc1` [Compound 257], with less than 1 nM.
Consider `CC(C)(C)OC(=O)N[C@@H](C(=O)N1CCC[C@H]1c1ncc(-c2ccc(C#Cc3ccc(-c4nnc([C@@H]5CCCN5C(=O)[C@H](NC(=O)OC(C)(C)C)c5ccccc5)[nH]4)cc3)cc2)[nH]1)c1ccccc1` [Compound 246], for which the EC50 was less than 1 nM.
Take `COC(=O)N[C@H](C(=O)N1CCC[C@H]1c1ncc(-c2ccc(C#Cc3ccc(-c4cnc([C@@H]5CCCN5C(=O)[C@H](NC(=O)OC)c5ccccc5)[nH]4)cc3)cc2)[nH]1)C(C)C` [Compound 1002]: the EC50 is less than 1 nM.
Take `CC(C)[C@H](NC(=O)[C@H](NC(=O)OC(C)(C)C)c1ccccc1)c1ncc(-c2ccc(C#Cc3ccc(-c4cnc([C@@H]5CCCN5C(=O)[C@H](NC(=O)OC(C)(C)C)c5ccccc5)[nH]4)cc3)cc2)[nH]1` [Compound 281]: the EC50 fell in the range of 1 to 9.9 nM.
